According to patent US5425942A, “Polyfunctinal protease” (Otsuka Pharamceutical Co., Ltd., priority 1988, dated 1995):
Values joined by “and” are separate entries in the source; they are usually repeats but may differ in a detail not shown here. Equal entries are not always repeated. Where two headings read alike, the source gives them in different places.

Target: T1, human proteasome (Homo sapiens, UniProt P28072+P28074+Q99436)
T1 construct: The desired homogeneous human proteasome was thus recovered in the fraction at about 340 mM KCl; from tissue
Experiment: Activity inhibition of human proteasome by protease inhibitors
Assay type: biochemical

Compound | Inhibition Rate (%) by Inhibitor | inhibition at 10000 µM (read-out: Inhibition Rate (%) by Inhibitor) | Inhibition Rate (%) by Inhibitor (substrate Cbz-Ala-Arg-Arg-MNA, inhibitor 50 μg/ml, 2 μg proteasome, room temperature, one hour, optimal pH) | Inhibition Rate (%) by Inhibitor (substrate Cbz-Leu-Leu-Glu-NA, inhibitor 50 μg/ml, 2 μg proteasome, room temperature, one hour, optimal pH) | Inhibition Rate (%) by Inhibitor (substrate Suc-Leu-Leu-Val-Tyr-MCA, inhibitor 50 μg/ml, 2 μg proteasome, room temperature, one hour, optimal pH)
CCN1C(=O)C=CC1=O [C, N-ethylmaleimide] | 96% and 99% | 88% |  |  | 
Chymostatin [B] |  |  | 19% | 0% | 75%
